Assay results published in patent publication US6677316B2, “Adenosine derivatives and methods of administration” (SmithKline Beecham Corporation, priority 1998, dated 2004).

Tests used:
[1] = target: T1, human adenosine A1 receptor (Homo sapiens, UniProt P30542); test: Reporter gene assay (CRE/SPAP) in CHO cells, agonist potency relative to NECA, adenosine A1 receptor; format: cell-based; set-up: key: equipotent concentration ratio, NECA = 1; conditions: ECR = equipotent concentration ratio relative to NECA = 1, inhibition of forskolin-stimulated SPAP production
T1 construct: expressed in transfected cells; host or cells: Chinese hamster ovary (CHO) cells with CRE/SPAP/HYG reporter elements
T1 sequence (P30542 1-326): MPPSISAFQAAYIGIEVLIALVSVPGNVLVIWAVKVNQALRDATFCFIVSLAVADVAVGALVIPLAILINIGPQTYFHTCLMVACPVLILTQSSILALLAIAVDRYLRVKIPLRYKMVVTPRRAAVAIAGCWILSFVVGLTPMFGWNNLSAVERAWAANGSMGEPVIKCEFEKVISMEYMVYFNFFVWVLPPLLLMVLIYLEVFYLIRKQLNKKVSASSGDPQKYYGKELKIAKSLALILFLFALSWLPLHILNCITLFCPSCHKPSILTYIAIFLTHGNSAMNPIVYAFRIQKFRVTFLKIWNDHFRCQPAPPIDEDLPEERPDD
Description: (§1) Reporter Gene Experiments
(§2) Agonist activity was measured in Chinese hamster ovary (CHO) cells containing the CRE/SPAP/HYG (CRE=cyclic AMP response element; HYG=hygromycin resistance; SPAP=secreted placental alkaline phosphatase) reporter gene elements, which upon stimulation of cAMP levels produced SPAP. A cell line was used, which was stably transfected with either the human adenosine A1 receptor or the human adenosine A3 receptor in addition to the above elements. Cells were plated out in 96-well plates in culture medium and incubated at 37° C. for 1 hour. For measurement of potency, agonists were added to the appropriate wells at a concentration range of approximately 10^−10- 10^−5M. 15Min later, cAMP levels were stimulated by addition of a maximal concentration of forskolin. All cells were then incubated for a further 5 hours at 37° C., and cooled to room temperature, after which a substrate for the phosphatase (para-nitrophenol phosphate, pNPP), which is converted by SPAP to a coloured reagent) was then added and the 96-well -plates were read in a plate reader. From these readings, the concentration-dependence of the inhibition by the agonist for forskolin-stimulated SPAP production can be calculated. One of the agonists tested on each 96-well plate was the standard non-selective agonist, N-ethylcarboxamidoadenosine (NECA), and the potency of all test agonists is expressed relative to that of the NECA standard.
(§3) (ECR=equipotent concentration ratio relative to NECA=1)

[2] = target: T2, human adenosine A3 receptor (Homo sapiens, UniProt P0DMS8); test: Reporter gene assay (CRE/SPAP) in CHO cells, agonist potency relative to NECA, adenosine A3 receptor; format: cell-based; set-up: key: equipotent concentration ratio, NECA = 1; conditions: ECR = equipotent concentration ratio relative to NECA = 1, inhibition of forskolin-stimulated SPAP production
T2 construct: expressed in transfected cells; host or cells: Chinese hamster ovary (CHO) cells with CRE/SPAP/HYG reporter elements
T2 sequence (P0DMS8 1-318): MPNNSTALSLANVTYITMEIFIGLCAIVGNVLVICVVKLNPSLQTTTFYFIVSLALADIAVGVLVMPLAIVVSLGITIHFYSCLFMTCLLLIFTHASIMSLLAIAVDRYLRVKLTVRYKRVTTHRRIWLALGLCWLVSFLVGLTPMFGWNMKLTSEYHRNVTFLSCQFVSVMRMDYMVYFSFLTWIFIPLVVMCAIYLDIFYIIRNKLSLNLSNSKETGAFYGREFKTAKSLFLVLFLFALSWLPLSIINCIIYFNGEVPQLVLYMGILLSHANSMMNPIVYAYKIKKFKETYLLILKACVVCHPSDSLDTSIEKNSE
Description: as §1, §2, §3

In the case of CC(C)(C)c1nnc([C@H]2O[C@@H](n3cnc4c(NC5CCOCC5)ncnc43)[C@H](O)[C@@H]2O)o1 [Example 3, (2S,3S,4R,5R)-2-(5-tert-Butyl-[1,3,4]oxadiazol-2-yl)-5-[6-(tetrahydro-pyran-4-ylamino)-purin-9-yl]-tetrahydro-furan-3,4-diol], the “Adenosine A1 receptor ECR*” value [1] is reported as 4.16 and the “Adenosine A3 receptor ECR*” value [2] is reported as 152.
In the case of CCOC(=O)N1CCC(Nc2ncnc3c2ncn3[C@@H]2O[C@H](c3nnc(C(C)(C)C)o3)[C@@H](O)[C@H]2O)CC1 [Example 4, 4-{9-[5S-(5-tert-Butyl-[1,3,4]oxadiazol-2-yl)-3R,4S-dihydroxy-tetrahydro-furan-2R-yl]-9H-purin-6-ylamino}-piperidine-1-carboxylic acid ethyl ester], the “Adenosine A1 receptor ECR*” value [1] is reported as 5.65 and the “Adenosine A3 receptor ECR*” value [2] is reported as 152.
In the case of CC(C)c1nnc([C@H]2O[C@@H](n3cnc4c(NC5CCOCC5)ncnc43)[C@H](O)[C@@H]2O)o1 [Example 6, (2S,3S,4R,5R)-2-(5-Isopropyl-[1,3,4]oxadiazol-2-yl)-5-[6-(tetrahydro-pyran-4-ylamino)-purin-9-yl]-tetrahydro-furan-3,4-diol], the “Adenosine A1 receptor ECR*” value [1] is reported as 1.71 and the “Adenosine A3 receptor ECR*” value [2] is reported as 134.
CCOC(=O)N1CCC(Nc2ncnc3c2ncn3[C@@H]2O[C@H](c3nnc(C4CC4)o3)[C@@H](O)[C@H]2O)CC1 [Example 12, 4-{9-[5S-(5-Cyclopropyl-[1,3,4]oxadiazol-2-yl)-3R,4S-dihydroxy-tetrahydro-furan-2R-yl]-9H-purin-6-ylamino}-piperidine-1-carboxylic acid ethyl ester] was tested, and the “Adenosine A1 receptor ECR*” value [1] was 2.28 and the “Adenosine A3 receptor ECR*” value [2] was 254.
With CC(C)(C)c1nnc([C@H]2O[C@@H](n3cnc4c(Nc5ccc(Cl)cc5F)ncnc43)[C@H](O)[C@@H]2O)o1 [Example 14, (2S,3S,4R,5R)-2-(5-tert-Butyl-[1,3,4]oxadiazol-2-yl)-5-[6-(4-chloro-2-fluoro-phenylamino)-purin-9-yl]-tetrahydro-furan-3,4-diol] the “Adenosine A1 receptor ECR*” value [1] was 5.8 and the “Adenosine A3 receptor ECR*” value [2] was 1066.71.
With CCc1cnc([C@H]2O[C@@H](n3cnc4c(NC5CCOCC5)ncnc43)[C@H](O)[C@@H]2O)o1 [Example 16, (2S,3S,4R,5R)-2-(5-Ethyl-oxazol-2-yl)-5-[6-(tetrahydro-pyran-4-ylamino)-purin-9-yl]-tetrahydro-furan-3,4-diol] the “Adenosine A1 receptor ECR*” value [1] was 9.6 and the “Adenosine A3 receptor ECR*” value [2] was 201.
For O[C@@H]1[C@H](O)[C@@H](c2nc(C3CC3)no2)O[C@H]1n1cnc2c(N[C@H]3CCC[C@@H]3O)ncnc21 [Example 19, (2S,3S,4R,5R)-2-(3-Cyclopropyl-[1,2,4]oxadiazol-5-yl)-5-[6-(2S-hydroxy-cyclopent-(S)-ylamino)-purin-9-yl]-tetrahydro-furan-3,4-diol], the “Adenosine A1 receptor ECR*” value [1] was 5.15 and the “Adenosine A3 receptor ECR*” value [2] was 172.
For CC(C)(C)c1noc([C@H]2O[C@@H](n3cnc4c(N[C@H]5CCC[C@@H]5O)ncnc43)[C@H](O)[C@@H]2O)n1 [Example 21, (2S,3S,4R,5R)-2-(3-tert-Butyl-[1,2,4]oxadiazol-5-yl)-5-[6-(2S-hydroxy-cyclopent-(S)-ylamino)-purin-9-yl]-tetrahydro-furan-3,4-diol], the “Adenosine A1 receptor ECR*” value [1] was 23.26 and the “Adenosine A3 receptor ECR*” value [2] was 321.
For O[C@@H]1[C@H](O)[C@@H](c2nc(C3CC3)no2)O[C@H]1n1cnc2c(NC3CCOCC3)ncnc21 [Example 22, (2S,3S,4 R,5R)-2-(3-Cyclopropyl-[1,2,4]oxadiazol-5-yl)-5-[6-(tetrahydro-pyran4-ylamino)-purin-9-yl]-tetrahydro-furan-3,4-diol], the “Adenosine A1 receptor ECR*” value [1] was 8.75 and the “Adenosine A3 receptor ECR*” value [2] was 423.
In the case of CC(C)(C)c1cc([C@H]2O[C@@H](n3cnc4c(NC5CCOCC5)ncnc43)[C@H](O)[C@@H]2O)on1 [Example 28, (2S,3S,4R,5R)-2-(3-tert-Butyl-isoxazol-5-yl)-5-[6-(tetrahydro-pyran-4-ylamino)-purin-9-yl]-tetrahydro-furan-3,4-diol], the “Adenosine A1 receptor ECR*” value [1] is reported as 0.42 and the “Adenosine A3 receptor ECR*” value [2] is reported as 44.7.
Cc1cccc(NS(=O)(=O)CCNc2ncnc3c2ncn3[C@@H]2O[C@H](c3nnc(C(C)(C)C)o3)[C@@H](O)[C@H]2O)c1 [Example 126, 2-[(9-{(2R,3R,4S,5S)-5-[5-(tert-butyl)-1,3,4-oxadiazol-2-yl]-3,4-dihydroxytetrahydrofuran-2-yl}-9H-purin-6-yl)amino]-N-(3-methylphenyl)ethanesulfonamide] was tested, and the “Adenosine A1 receptor ECR*” value [1] was 13.9.
CCc1cc([C@H]2O[C@@H](n3cnc4c(NC5CCOCC5)ncnc43)[C@H](O)[C@@H]2O)on1 [Example 135, (2S,3S,4R,5R)-2-(3-ethylisoxazol-5-yl)-5-[6-(tetrahydro-2H-pyran-4-ylamino)-9H-purin-9-yl]tetrahydrofuran-3,4-diol] was tested, and the “Adenosine A1 receptor ECR*” value [1] was 0.48.
For CCc1cc([C@H]2O[C@@H](n3cnc4c(N[C@H]5CCC[C@@H]5O)ncnc43)[C@H](O)[C@@H]2O)on1 [Example 136, (2S,3S,4R,5R)-2-(3-ethylisoxazol-5-yl)-5-(6-{[(1S,2S)-2-hydroxycyclopentyl]amino}-9H-purin-9-yl)tetrahydrofuran-3,4-diol], the “Adenosine A1 receptor ECR*” value [1] was 1.95.
With CCOC(=O)N1CCC(Nc2ncnc3c2ncn3[C@@H]2O[C@H](c3cc(CC)no3)[C@@H](O)[C@H]2O)CC1 [Example 138, ethyl 4-({9-[(2R,3R,4S,5S)-5-(3-ethylisoxazol-5-yl)-3,4-dihydroxytetrahydrofuran-2-yl]-9H-purin-6-yl}amino)piperidine-1-carboxylate] the “Adenosine A1 receptor ECR*” value [1] was 1.31.
For Cc1cc([C@H]2O[C@@H](n3cnc4c(Nc5ccc(Cl)cc5F)ncnc43)[C@H](O)[C@@H]2O)on1 [Example 144, (2R,3R,4S,5S)-2-[6-(4-chloro-2-fluoroanilino)-9H-purin-9-yl]-5-(3-methylisoxazol-5-yl)tetrahydrofuran-3,4-diol], the “Adenosine A1 receptor ECR*” value [1] was 2.8.
In the case of CCCc1cc([C@H]2O[C@@H](n3cnc4c(Nc5ccc(Cl)cc5F)ncnc43)[C@H](O)[C@@H]2O)on1 [Example 145, (2R,3R,4S,5S)-2-[6-(4-chloro-2-fluoroanilino)-9H-purin-9-yl]-5-(3-propylisoxazol-5-yl)tetrahydrofuran-3,4-diol], the “Adenosine A1 receptor ECR*” value [1] is reported as 24.9.
O[C@@H]1[C@H](O)[C@@H](c2cc(Br)no2)O[C@H]1n1cnc2c(Nc3ccc(Cl)cc3F)ncnc21 [Example 164, (2S,3S,4R,5R)-2-(3-bromoisoxazol-5-yl)-5-[6-(4-chloro-2-fluoroanilino)-9H-purin-9-yl]tetrahydrofuran-3,4-diol] was tested, and the “Adenosine A1 receptor ECR*” value [1] was 4.3.
In the case of O[C@@H]1[C@H](O)[C@@H](c2nnc(C(F)(F)F)o2)O[C@H]1n1cnc2c(N[C@H]3CCC[C@@H]3O)ncnc21 [Example 179, (2R,3R,4S,5S)-2-(6-{[(1S,2S)-2-hydroxy-cyclopentyl]-amino}-9H-purin-9-yl)-5-[5-(trifluoromethyl)-1,3,4-oxadiazol-2-yl]-tetrahydrofuran-3,4-diol], the “Adenosine A1 receptor ECR*” value [1] is reported as 12.6.
Cc1nnc([C@H]2O[C@@H](n3cnc4c(Nc5ccc(Cl)cc5F)ncnc43)[C@H](O)[C@@H]2O)o1 [Example 181] was tested, and the “Adenosine A1 receptor ECR*” value [1] was 8.57.
For O[C@@H]1[C@H](O)[C@@H](c2cc(C3CC3)no2)O[C@H]1n1cnc2c(Nc3ccc(Cl)cc3F)ncnc21 [Example 182, (2R,3R,4S,5S)-2-[6-(4-chloro-2-fluoroanilino)-9H-purin-9-yl]-5-(3-cyclopropyl-isoxazol-5-yl)-tetrahydrofuran-3,4-diol], the “Adenosine A1 receptor ECR*” value [1] was 3.48.
